Data: patent US20250333733A1, “NOVEL TARGETS AGAINST OVARIAN CANCER” (UNIVERSITY OF PUERTO RICO, priority 2022, published 2025)

Columns and labels:
SKOV3IP1CIS [1] = settings: 72-hr incubation, Alamar Blue, read-out: IC50 cisplatin; cited from earlier work
A2780CP20 = settings: 72-hr incubation, Alamar Blue, read-out: IC50 cisplatin; cited from earlier work
OVCAR3CIS cells [2] = test: Cell viability, Alamar blue, siRNA alone or with cisplatin; format: cell-based; settings: CIS 2.5 μM, NC-siRNA-transfected OVCAR3CIS cells
Description: OVCAR3CIS cells (3.0×10^4 cells/mL) or SKOV3ip1CIS (3.0×10^4 cells/mL) were seeded into 12-well plates. […] The next day, 400 cells (OVCAR3CIS) or 1,000 cells (SKOV3ip1CIS) were seeded into 6-well plates and incubated for seven days, fixed and stained with 0.5% crystal violet in methanol. Colonies of at least 50 cells were counted using a light microscope (CKX41: Olympus, Center Valley, PA, USA) with a total magnification of 40x. For cell viability assays, OVCAR3 and OVCAR3CIS (3.0×10^4 cells/mL) or SKOV3ip1and SKOV3ip1CIS (3.5×10^4 cells/mL) were seeded into 96-well plates, and 24 hours later, siRNA transfection was performed as described above. The next day, the transfection mix was replaced with cisplatin (CIS) (2.5 uM final concentration dissolved in regular cell culture media) and after forty-eight hours, the medium was removed, and Alamar blue dye (Invitrogen, Thermo Fisher Scientific, Eugene, OR, USA) was added following the manufacturer's instructions. Optical density (OD) was measured, and percentages of cell viability were calculated after blank OD subtraction. Untreated cells were assessed as 100% cell viability.

OV90 = settings: 72-hr incubation, Alamar Blue, read-out: IC50 cisplatin; cited from earlier work
OVCAR3 = settings: 72-hr incubation, Alamar Blue, read-out: IC50 cisplatin; cited from earlier work
OV90CIS = settings: 72-hr incubation, Alamar Blue, read-out: IC50 cisplatin; cited from earlier work
OVCAR3CIS = settings: 72-hr incubation, Alamar Blue, read-out: IC50 cisplatin; cited from earlier work
A2780CIS = settings: 72-hr incubation, Alamar Blue, read-out: IC50 cisplatin; cited from earlier work
SKOV3IP1 = settings: 72-hr incubation, Alamar Blue, read-out: IC50 cisplatin; cited from earlier work
CASC10 [3] = test: RT-qPCR of CASC10 expression after siRNA transfection in OVCAR3CIS cells; format: cell-based; settings: vs NC-siRNA
Description: (§1) SiRNA ON-TARGET plus SMARTpool (a mixture of 4 siRNA as a single tube) and a negative control siRNA (NC-siRNA) (Sigma-Aldrich) were used for transfection studies. CASC10, was targeted by using two siRNAs targeting different regions of the CASC10 RNA (e.g., CASC10-siRNA (1) and CASC10-siRNA (2)). OVCAR3CIS or SKOV3ip1CIS cells were seeded into 12-well plates at 3.0×10^4 cells/mL. The next day, siRNAs were mixed with HiPerfect transfection reagent (Qiagen, Valencia, CA) at a 1:2 ratio (SIRNA: HiPerfect) in serum and antibiotic-free Opti-MEM medium (Gibco) and added to the cells. After twenty-four hours the media was replaced by regular culture media, and cells were cultured and used for further experiments. To assess siRNA transfection efficiency, cells were collected 24 hours after siRNA transfection.
(§2) A custom-made 384-well plate containing pre-designed forward and reverse primers was purchased from Bio-Rad (CA, USA). Total RNA was isolated from OVCAR3 and OVCAR3CIS cells using the GenElute Mammalian Total RNA Mini Kit (Millipore-Sigma, MO, USA) following the manufacturer's instructions. […] Fold-changes and cycle threshold (Ct) values were calculated by the instrument's internal software relative to OVCAR3 cells and normalized to B-actin along with controls for gDNA, PCR reaction, RT reaction, and RNA quality.

OVCAR3CIS cells [4] = test: Colony formation assay after siRNA transfection; format: cell-based; settings: single siRNA, vs NC-siRNA
Description: as §1
OVCAR3CIS cells (3.0×10^4 cells/mL) or SKOV3ip1CIS (3.0×10^4 cells/mL) were seeded into 12-well plates. Twenty-four hours later, cells were transfected with 100 nM (final concentration) of each siRNA. […] Colonies of at least 50 cells were counted using a light microscope (CKX41: Olympus, Center Valley, PA, USA) with a total magnification of 40x. […] Optical density (OD) was measured, and percentages of cell viability were calculated after blank OD subtraction. Untreated cells were assessed as 100% cell viability. […]

SKOV3ip1CIS cells = test: Colony formation assay after siRNA transfection; format: cell-based, human; settings: SKOV3ip1CIS (FIG. 8B)
Description: as §1
OVCAR3CIS cells (3.0×10^4 cells/mL) or SKOV3ip1CIS (3.0×10^4 cells/mL) were seeded into 12-well plates. Twenty-four hours later, cells were transfected with 100 nM (final concentration) of each siRNA. […] Colonies of at least 50 cells were counted using a light microscope (CKX41: Olympus, Center Valley, PA, USA) with a total magnification of 40x. […] Optical density (OD) was measured, and percentages of cell viability were calculated after blank OD subtraction. Untreated cells were assessed as 100% cell viability.

SKOV3IP1CIS [5] = test: Matrigel transwell invasion assay; format: cell-based, human
Description: (§3) Cell invasion was measured using the Matrigel transwell method. OVCAR3CIS (3.0×10^4 cells/mL) or SKOVip1CIS (3.5×10^4 cells/mL) were seeded into 10 cm Petri dishes and transfected with siRNAs. Twenty-four hours later, serum-free matrigel (BD Biosciences CA, USA) was added onto the upper chambers of 24-well plates and incubated at 37° C. for polymerization. Transfected cells were collected and resuspended in serum-free and re-seeded onto the Matrigel-coated chambers. Medium containing 10% FBS was added to the lower area of the wells, and the plates incubated for 48 hours at 37° C. The medium was removed, and cells that invaded through the matrigel fixed and stained using ProtocolHema 3 Stain Set (Fisher Scientific MI, USA). Invaded cells were microscopically counted using a digital camera to capture images at a 20× resolution. The percentage of cell invasion was calculated using the NC-SIRNA condition as 100% cell invasion.

CASC10 [6] = test: RT-qPCR of CASC10 expression after siRNA transfection in SKOV3ip1 cells; format: cell-based, human; settings: SKOV3ip1 cells as printed
Description: as §1, §2

OVCAR3CIS cells [7] = test: Matrigel transwell invasion assay; format: cell-based; settings: vs NC-siRNA
Description: as §3

Compound: N.N.[Cl][Pt][Cl] [cisplatin]
- IC50 (SKOV3IP1CIS [1]): 7.3 µM
- IC50 (A2780CP20): 20 to 30 µM
- cell viability (OVCAR3CIS cells [2]): reduced the cell viability
- IC50 (OV90): 3.5 µM
- IC50 (OVCAR3): 2.8 µM
- IC50 (OV90CIS): 7.8 µM
- IC50 (OVCAR3CIS): 7.5 µM
- IC50 (A2780CIS): 4.3 µM
- IC50 (SKOV3IP1): 3.9 µM

Compound: CASC10-siRNA (1): siRNA targeting CASC10 RNA, SEQ ID NO 1 and 2: 5′ GCUAUCUGCUUGAUCCCUU(dT)(dT) 3′ / 5′ AAGGGAUCAAGCAGAUAGO(dT)(dT) 3′ (chain 1 GCUAUCUGCUUGAUCCCUUNN; chain 2 AAGGGAUCAAGCAGAUAGCNN; 3' dTdT overhangs, chemistry not fully specified)
- decrease of CASC10 expression (CASC10 [3]): 47%
- reduction in the number of colonies (OVCAR3CIS cells [4]): 42%
- reduction in the number of colonies (SKOV3ip1CIS cells): 81%
- reduction of invasion ability (SKOV3IP1CIS [5]): 36%
- decrease of CASC10 relative expression (CASC10 [6]): 70%
- reduction of invasiveness (OVCAR3CIS cells [7]): 42%
